Test system: rabbit sera prepared against whole M protein
Assay: ELISA: peptide recognition by anti-M protein rabbit sera
Type: binding
Method: Overlapping peptides representing each M type were assessed for their immunogenicity using ELISA and dot-immunoblot.
Levels of anti-M protein antibodies in mouse sera were determined by an enzyme-linked immunosorbent assay (ELISA) using either synthetic peptides or whole M protein as antigen. Microtiter plates (DYNEX Immulon 2 HB) were coated with 10 μg/ml antigen in 10 mM phosphate-buffered saline (PBS) at 4° C. overnight. Plates were rinsed three times with wash buffer (0.05% Tween 20 in 10 mM PBS, pH 7.2) and blocked with 1% BSA in PBS for one hour at 37° C. The appropriate test sera were applied at a starting dilution of 1:1000 and serially diluted two fold down the plate in PBS. Plates were incubated at 37° C. for 30 minutes and subsequently rinsed three times. Goat anti-rabbit or goat anti-mouse Ig-peroxidase conjugate diluted 1:10,000 in PBS was added to all wells and incubated for two hours at 37° C. Plates were rinsed three times with wash buffer and freshly prepared TMB peroxidase (Kirkegaard and Perry Laboratories) was added. Reactions were quenched with 0.18 M H2SO4 after 30 minutes at room temperature and OD450 was measured with a Labsystems Multiskan plate reader using Ascent software. ELISA titers are expressed as the reciprocal of the last dilution which gave a reading OD450>0.10.
The immunoreactivity of several synthetic peptides was determined by ELISA using rabbit sera prepared against whole M protein. The synthetic peptides are representative of relatively small portions of the M protein N-terminus; therefore, it was advantageous to determine if the epitopes contained within particular peptides were immunoreactive with sera prepared against whole M protein. It was shown that the whole anti-M protein rabbit sera of the respective serotypes could bind to each of the synthetic peptides within that serotype. However, some peptides were more highly immunoreactive than others, thus being better suited for use in the animal studies.

Sequence | immunoreactivity by ELISA using rabbit sera prepared against whole M protein
CSVKDNEKELHNKIADLEEER [Peptide M89-3] | confirmed
CRENYRRTLDKFNTEQGKTTR [Peptide M75-5] | confirmed
CEKLREELQQYYALSDAKEEE [Peptide M22-6] | confirmed
CDSDNSDNINRSVSVKDNEKE [Peptide M89-7] | confirmed
CELYNKIQELEEGKAELFDKLEK [Peptide M73-3] | confirmed
CQRAKAALDKYELENHDLKTKN [Peptide M5-4] | confirmed
CEEHEKVTQAREAVIREMQQR [Peptide M33-1] | confirmed
CDLLAKHGELLSEYDALKEKQDK [Peptide M92-4] | confirmed
CLDQVTQLYTKHNSNYQQYNA [Peptide M3-3] | confirmed
CDLEEERGKLLNKLDKVEEEHK [Peptide M77-4] | confirmed
CDSSREVTNELAASMWKAQAD [Peptide M58-4] | confirmed
CIRNIRLRHENKDLKARLENA [Peptide M1-5] | confirmed
CELFEKLDKVEEEHKKVEEEHKK [Peptide M2-4] | confirmed
CNSKNPAPAPAVPVKKEATKL [st2967-4] | confirmed
CDAEQNRANELEKKLSGYEKD [Peptide M82-4] | confirmed
CDSSREVTNELTASMWKAQAD [Peptide M58-1] | confirmed
CKGTNVSADLYNSLWDENKT [Peptide M11-2] | confirmed
CLNKLDKVEEEHKKDHEQLEK [Peptide M77-5] | confirmed
CRSDARSVNGEFPRHVKLKNE [Peptide M3-9] | confirmed
CNDELRENYRRTLDKFNTEQ [Peptide M75-3] | confirmed
CTVTRGTVNDPQRAKETLDKYE [Peptide M5-6] | confirmed
CAESPKSTETSANGADKLAD [Peptide M28-1] | confirmed
CKDELIKRKELTIIEIQNHQL [Peptide M18-5] | confirmed
CDKLADAYNTLLTEHEKLRDE [Peptide M28-3] | confirmed
CAGQSAPKGTNVSADLYNSLWDE [Peptide M11-1] | confirmed
CEEHPDVVAARESVLNNVR [Peptide M43-1] | confirmed

Sequence | immunoreactivity by ELISA using rabbit sera prepared against whole M protein
CDSAWNWPKEYNALLKENEEL [Peptide M4-2] | confirmed
CDDRSVSTNSGSVSTPYNNLLNE [Peptide M92-1] | confirmed
CKSTETSANGADKLADAYNTL [Peptide M28-2] | confirmed
CKFERLKRRSELYLQQYYDNK [Peptide M12-5] | confirmed
CLNQVTQLHTKHNSNYQQYNA [Peptide M3-8] | confirmed
CDLEEEREKLLNKLDKVEEEHKKD [Peptide M77-3] | confirmed
CRVFPRGTVENPDKARELLNK [Peptide M6-1] | confirmed
CREVTNELTASMWKAQADSAK [Peptide M58-2] | confirmed
CTVTRGTVNDPQRAKEALDKYE [Peptide M5-5] | confirmed
CTEHEKLRDEYYTLIDAKLEEK [Peptide M28-4] | confirmed
CHDLKTKNEGLKTENEGLKTEN [Peptide M5-9] | confirmed
CRDITEAGVSKFWKSKFDAEQN [Peptide M82-2] | confirmed
CRGTVENPDKARELLNKYDVEN [Peptide M6-2] | confirmed
CENHDLKTKNEGLKTENEGLK [Peptide M5-3] | confirmed
CRATADNKDELIKRANGYEIQ [Peptide M18-4] | confirmed
CNTLNTLTDENEKLREELQQ [Peptide M22-4] | confirmed
CVPVKKEATKLSEAELYNKIQ [st2967-2] | confirmed
CTQLYTKHNSNYQQYNAQAGR [Peptide M3-11] | confirmed
CAAPLTRATADNKDELIKRAND [Peptide M18-1] | confirmed
CNGDGNPREVIEDLAANNPVIQ [Peptide M1-6] | confirmed
CIRLRHHENKDLKARLENAMEV [Peptide M1-8] | confirmed
CDSDNINRSVSVKDNEKELHNK [Peptide M89-1] | confirmed
CQAQEEALRDVLNNTPHNQLRD [Peptide M41-3] | confirmed
CEQAKNNNGELTLQQKYDALT [Peptide M59-1] | confirmed
CLNQVTQLYTKHNSNYQQYNA [Peptide M3-6] | confirmed
CQHKNNALTSENESLRREKDR [Peptide M94-2] | confirmed

Sequence | immunoreactivity by ELISA using rabbit sera prepared against whole M protein
CNGDGNPREVIEDLAANNPAIQ [Peptide M1-1] | confirmed
CDNQSPAPVKKEAKKLNEAE [Peptide M73-1] | confirmed
CQELEEGKAELFDKLEKVEEE [Peptide M73-6] | confirmed
CAEIKKPQADSAWNWPKEYNA [Peptide M4-1] | confirmed
CKNDKLSSENEGLKAGLQEKE [Peptide M101-5] | confirmed
CKKEAKKLNEAELYNKIQELE [Peptide M73-2] | confirmed
CEGNARLAQAQEEALRDVLNN [Peptide M41-1] | confirmed
CLRQKEENDKLKLEKKGLETE [Peptide M43-4] | confirmed
CDNQSPALVKKEAKKLNEAEL [Peptide M73-4] | confirmed
CENPDKARELLNKYDVENSMLQ [Peptide M6-3] | confirmed
CKAKELEKQVEEYKKNYETLEK [Peptide M58-3] | confirmed
CDVLNNTPHNQLRDAYAGAFRR [Peptide M41-4] | confirmed
CADHPSYTAAKDEVLSKFSVPGH [Peptide M101-1] | confirmed
CQLYTKHIYTKHNSNYQQYNAQ [Peptide M3-10] | confirmed
CKFERLKQRSELYLHQYYDNK [Peptide M12-4] | confirmed
CNENKSLRRERDNYLNYLYEK [Peptide M59-3] | confirmed
CEGVSVGSDASLHNRITDLEEEREK [Peptide M77-1] | confirmed
CEEERTFTELPYEARYKAWKSE [Peptide M75-1] | confirmed
CELHNEIADLEEERGEHLDKID [Peptide M89-4] | confirmed
CKKEAKLSEAELHDKIKNLEEEK [Peptide M2-2] | confirmed
CDNINRSVSVKDNEKELHNKIAD [Peptide M89-2] | confirmed
CRLAQAQEEALRDVLNNTPHN [Peptide M41-2] | confirmed
CESKLINTLTDENEKLREELQQ [Peptide M22-3] | confirmed
CDKLRLEKEELKTDLQKKERE [Peptide M101-4] | confirmed
CESLRREKDRYLYEKEELEKK [Peptide M94-3] | confirmed
CDENKTLREKQEEYITKIQNE [Peptide M11-3] | confirmed
